Test results as given in patent US9683014B2, “Dipeptide mimetics of NGF and BDNF neurotrophins” (UCHREZHDENIE ROSSIISKOI AKADEMII MEDITSYNSKIKH NAUK …, priority 2009, dated 2017).
Like-named read-outs stand apart in the source and are kept apart here. Marks after values point to notes of the source that are not given here.

Key:
[1] = test system: rats with hemorrhagic stroke; details: 1 mg/kg
Method: The experiments were carried out on male white outbred rats weighing 220-250 g. […] The local cerebral hemorrhage (post-traumatic intracerebral hemorrhage) as a hemorrhagic stroke (HS) model was produced by the method of Makarenko (Makarenko A. N. et al., Zh. V. N. D. 2002, 52(6), 765-768).
To produce the stroke, rats were anesthetized with chloral hydrate (400 mg/kg i.m.) followed by craniotomy. The cerebral tissue in the region of internal capsule was destroyed followed (in 2-3 min) by the injection of blood (0.02-0.03 ml) taken from under the animal's tongue.
The rats were monitored for 14 days after surgery. Animal's physical condition and behavioral features were recorded at 1, 3, 7 and 14 days.
The animals were distributed into 3 groups. Group 1 comprised sham-operated (SO) rats with craniotomy alone, group 2 comprised animals with HS, and group 3 comprised rats with HS treated with GK-2 (1 mg/kg at 3 h after surgery and every 48 hours thereafter for a total of 6 administrations). Group 1 and group 2 animals were treated with physiological saline in an equivalent volume.
Changes in animals' physical condition and behavior were evaluated by conventional methods. The neurological status was assessed by scoring neurological deficits according to MacGrow's stroke scoring system as modified by I. V. Gannushkina; by the muscle tone and coordination of movements monitoring methods; cognitive function was assessed by the passive avoidance conditioned reflex (PAR); and orientation and exploratory behavior by using the open field test. Also the drug's effect on the survival of rats was monitored.

HT-22 cells = test system: HT-22 cells
Method: The determination of cell viability was carried out by MTT test. MTT is a water soluble tetrazolium salt of yellow color which readily permeates cells. In living cells, MTT is converted into water insoluble formazan crystals of violet color. At the end of an experiment the growth medium was replaced with an MTT solution (0.5 mg/ml) and incubated for 30 min at 37° C. and 5% CO2. The MTT solution was then removed from the wells and DMSO was added to dissolve the formazan precipitate. Then the optical density was measured using a Multiscan (Thermo) spectrophotometer at a wavelength of 600 nm.

HT-22 neuronal cell line = assay: Viability of HT-22 neuronal cell line without damaging factors (MTT test); format: cell-based, mouse; details: added at plating and every 24 h for 10 days, control 0.283 ± 0.039
Method: The rat adrenal […] pheochromocytoma cell line PC12 was obtained from the Cell Culture Museum, RAN Institute of Molecular Genetics. The immortalized mouse hippocampal cell line HT-22 was a gift from Prof. F. Viegant, Utrecht University, the Netherlands.
The cells were grown in DMEM medium containing 5% FBS and 2 mM L-glutamine. The cells were incubated at 37° C. and 5% CO2. The growth medium was changed at 24 hours after inoculation and every 3 days thereafter. The cells were re-plated every week into culture flasks with a total area of 75 cm^2.
All types of cells were plated in DMEM medium.

[2] = test system: rats with bilateral ligation of the carotid artery; details: 1 mg/kg i.p.
Method: (§1) The experiments were conducted on male outbred rats weighing 350-420 g. The test compound was administered intraperitoneally at a dose of 1 mg/kg. On day 1 the animals were given the first injection of the test compound. 24 hours later (day 2) they underwent surgery for a bilateral ligation of the carotid artery. Following another 24 h (day 3) the animals were given the second injection of the test compound. 96 hours later (day 7) they were given the third injection of the test compound. Following another 24 h (day 8) the animals were tested in an open field test (Jackson H. F., Broadhurst P. L. The effects of parachlorophenylalanine and stimulus intensity on open-field test measures in rats. Neuropharmacology, 1982, 21, 1279-1282). On the next day (day 9) they were allowed to explore new objects (a modification of the test described in Ennaceur A., Delacour J. A new one-trial test for neurobiological studies of memory in rats. 1: Behavioral data. Behavioral Brain Research, 1988, 31, 47-59). On day 11 the animals were given the fourth injection of the test compound. The animals were sacrificed by decapitation 120 hours after the last injection of the test compound (day 16).
(§2) The rats were distributed into 3 groups (n≧8 for each group) at random. Group 1 (sham-operated) comprised animals that were anesthetized followed by a sham operation and subsequently received 4 injections of physiological saline according to the experimental set-up; Group 2 (ligation) comprised animals that were anesthetized followed by surgery for a bilateral ligation of the carotid artery and subsequently received 4 injections of saline according to the experimental set-up; Group 3 (ligation+test compound) comprised animals that were anesthetized followed by surgery for a bilateral ligation of the carotid artery and subsequently received 4 injections of the test compound according to the experimental set-up.

[3] = test system: rat cerebral cortex cells; details: 1 mg/kg i.p., 4 injections; cells isolated day 16; FIG. 2.9
Method: as §1, §2

NCCCC[C@H](NC(=O)[C@H](CCC(=O)O)NC(=O)CCC(=O)O)C(=O)NCCCCCCNC(=O)[C@H](CCCCN)NC(=O)[C@H](CCC(=O)O)NC(=O)CCC(=O)O [GK-2, bis-(N-monosuccinyl-glutamyl-lysine) hexamethylenediamide]
Number of rats lost within 14 days after HS, total loss, % ([1]; sham 0, stroke 40): 0% | Number of rats lost within 14 days after HS, total loss, abs. ([1]; sham 0/10, stroke 4/10): 0/10^# | Latency to entering the dark compartment (burrowing reflex) ([1]; sham 13.3 ± 2.10, stroke 40.2 ± 13.2): 27.9 ± 10.4 s | Number of rats lost, % ([1]; Day 1, sham 0, stroke 20): 0% | Number of rats lost, abs. ([1]; Day 1, sham 0/10, stroke 2/10): 0/10 | Number of crossings into open arms ([1]; Day 1, sham 0.9, stroke 0): 1.6 ± 0.4 | Number of crossings into the middle ([1]; Day 1, sham 1.9, stroke 0.25): 1.5 ± 0.4 | Number of crossings into closed arms ([1]; Day 1, sham 2.4, stroke 1.1): 1.9 ± 0.4 | Latency to entering an arm ([1]; Day 1, sham 6.1, stroke 62.8): 4.9 ± 1.05 s | Length of time spent in open arms ([1]; Day 1, sham 11.6, stroke 0): 51.3 ± 27.9 s | Length of time spent in the middle ([1]; Day 1, sham 46.8, stroke 95.3): 27.5 ± 7.4 s | PAR retention: Number of rats entering the dark compartment ([1]; Day 1, sham 60, stroke 100): 60% | PAR retention: Latency to entering the dark compartment ([1]; Day 1, sham 95.0, stroke 24.5): 85.5 ± 25.9 s | Length of time spent in closed arms ([1]; Day 1, sham 241.6, stroke 204.8): 221.2 ± 28.5 s | Number of rats lost, % ([1]; Day 3, sham 0, stroke 0): 0% | Number of rats lost, abs. ([1]; Day 3, sham 0/10, stroke 0/8): 0/10 | Number of crossings into open arms ([1]; Day 3, sham 0.6, stroke 0.12): 0.8 ± 0.2 | Number of crossings into the middle ([1]; Day 3, sham 0.6, stroke 0.12): 0.5 ± 0.2 | Number of crossings into closed arms ([1]; Day 3, sham 1.4, stroke 0.5): 1.2 ± 0.1 | Latency to entering an arm ([1]; Day 3, sham 5.1, stroke 164.4): 7.1 ± 1.9 s | Length of time spent in open arms ([1]; Day 3, sham 6.2, stroke 1.3): 10.3 ± 4.4 s | Length of time spent in the middle ([1]; Day 3, sham 18.6, stroke 165.0): 15.1 ± 4.9 s | PAR retention: Number of rats entering the dark compartment ([1]; Day 3, sham 70, stroke 100): 60% | PAR retention: Latency to entering the dark compartment ([1]; Day 3, sham 74.0, stroke 18.3): 88.0 ± 25.8 s | Length of time spent in closed arms ([1]; Day 3, sham 275.2, stroke 133.7): 274.6 ± 5.7 s | Number of rats lost, % ([1]; Day 7, sham 0, stroke 12.5): 0% | Number of rats lost, abs. ([1]; Day 7, sham 0/10, stroke 1/8): 0/10 | Number of crossings into the middle ([1]; Day 7, sham 0.7, stroke 0): 0.8 ± 0.4 | Number of crossings into open arms ([1]; Day 7, sham 1.4, stroke 0.4): 1.1 ± 0.2 | Number of crossings into closed arms ([1]; Day 7, sham 1.4, stroke 1.0): 1.5 ± 0.2 | Latency to entering an arm ([1]; Day 7, sham 3.0, stroke 67.4): 2.5 ± 0.3 s | Length of time spent in the middle ([1]; Day 7, sham 8.3, stroke 67.4): 8.0 ± 2.2 s | Length of time spent in open arms ([1]; Day 7, sham 13.3, stroke 8.6): 9.2 ± 1.9 s | PAR retention: Number of rats entering the dark compartment ([1]; Day 7, sham 50, stroke 100): 80% | PAR retention: Latency to entering the dark compartment ([1]; Day 7, sham 97.2, stroke 17.6): 45.5 ± 22.5 s | Length of time spent in closed arms ([1]; Day 7, sham 278.4, stroke 238.3): 283.0 ± 2.9 s | Number of rats lost, % ([1]; Day 14, sham 0, stroke 14.3): 0% | Number of rats lost, abs. ([1]; Day 14, sham 0/10, stroke 1/7): 0/10 | Number of crossings into the middle ([1]; Day 14, sham 0.7, stroke 0.2): 1.4 ± 0.3 | Number of crossings into open arms ([1]; Day 14, sham 1.1, stroke 0.2): 1.1 ± 0.3 | Number of crossings into closed arms ([1]; Day 14, sham 1.3, stroke 0.8): 1.6 ± 0.4 | Latency to entering an arm ([1]; Day 14, sham 3.1, stroke 54.3): 2.6 ± 0.4 s | Length of time spent in the middle ([1]; Day 14, sham 18.1, stroke 57.7): 16.4 ± 8.5 s | Length of time spent in open arms ([1]; Day 14, sham 29.7, stroke 0.8): 8.8 ± 2.3 s | PAR retention: Number of rats entering the dark compartment ([1]; Day 14, sham 60, stroke 100): 90% | PAR retention: Latency to entering the dark compartment ([1]; Day 14, sham 93.5, stroke 8.0): 45.0 ± 16.4 s | Length of time spent in closed arms ([1]; Day 14, sham 252.2, stroke 241.5): 274.8 ± 9.9 s | Optical density (MTT) (HT-22 cells; 10^−8M, 24 h prior to glutamate, control 0.178 ± 0.010, glutamate 0.145 ± 0.013): 0.179 ± 0.007^ | protective effect against glutamate cytotoxicity (HT-22 cells; added 24 hours prior to glutamate): protective effect | Optical density (MTT) (HT-22 neuronal cell line; 10^−5M): 0.357 ± 0.051 | Optical density (MTT) (HT-22 neuronal cell line; 10^−8M): 0.375 ± 0.063 | horizontal motor activity in the open field test ([2]; day 8, ligation reduced it, FIG. 2.5): restored it to the level found in the sham-operated rats | vertical motor activity in the open field test ([2]; day 8, ligation reduced it, FIG. 2.6): restored it to the level found in the sham-operated rats | total object smelling time and first-minute object exploration ([2]; day 9, FIGS. 2.7, 2.8): not different from the sham-operated rats | viability of the cortical cells (MTT) [3]: enhanced
